Columns and labels:
Progesterone receptor = target: T1, Progesterone receptor (Homo sapiens, UniProt P06401); format: functional
T1 sequence (P06401 whole entry): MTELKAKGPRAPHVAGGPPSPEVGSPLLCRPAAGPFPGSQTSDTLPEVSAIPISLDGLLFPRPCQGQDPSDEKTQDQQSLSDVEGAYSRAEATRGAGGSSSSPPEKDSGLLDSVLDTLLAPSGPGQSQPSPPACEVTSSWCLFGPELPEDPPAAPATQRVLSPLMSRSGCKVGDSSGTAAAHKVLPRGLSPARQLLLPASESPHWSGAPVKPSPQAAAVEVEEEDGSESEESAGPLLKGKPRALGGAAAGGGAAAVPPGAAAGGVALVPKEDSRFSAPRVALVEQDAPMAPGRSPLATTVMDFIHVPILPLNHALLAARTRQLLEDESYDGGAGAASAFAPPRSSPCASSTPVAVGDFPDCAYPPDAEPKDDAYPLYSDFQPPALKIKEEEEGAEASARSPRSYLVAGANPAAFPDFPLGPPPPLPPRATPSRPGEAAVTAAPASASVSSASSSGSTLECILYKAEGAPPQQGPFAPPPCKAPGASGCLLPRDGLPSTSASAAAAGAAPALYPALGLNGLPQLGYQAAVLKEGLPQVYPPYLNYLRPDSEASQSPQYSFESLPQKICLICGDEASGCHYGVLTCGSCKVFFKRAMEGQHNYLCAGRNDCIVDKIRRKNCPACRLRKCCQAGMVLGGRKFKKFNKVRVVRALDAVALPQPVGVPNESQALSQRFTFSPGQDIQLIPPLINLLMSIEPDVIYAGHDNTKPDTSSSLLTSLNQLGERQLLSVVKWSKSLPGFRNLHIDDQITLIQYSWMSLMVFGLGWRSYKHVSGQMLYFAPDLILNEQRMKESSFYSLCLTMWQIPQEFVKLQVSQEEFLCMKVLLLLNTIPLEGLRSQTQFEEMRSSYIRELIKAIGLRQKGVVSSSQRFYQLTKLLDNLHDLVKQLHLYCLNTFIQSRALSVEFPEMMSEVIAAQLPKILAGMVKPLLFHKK

[1] = target: Glutamate receptor ionotropic, NMDA 1 (Rattus norvegicus, UniProt P35439)
[2] = target: Beta-1 adrenergic receptor (Homo sapiens, UniProt P08588); format: functional
[3] = target: T2, 5-hydroxytryptamine receptor 2C (Homo sapiens, UniProt P28335)
T2 sequence (P28335 whole entry): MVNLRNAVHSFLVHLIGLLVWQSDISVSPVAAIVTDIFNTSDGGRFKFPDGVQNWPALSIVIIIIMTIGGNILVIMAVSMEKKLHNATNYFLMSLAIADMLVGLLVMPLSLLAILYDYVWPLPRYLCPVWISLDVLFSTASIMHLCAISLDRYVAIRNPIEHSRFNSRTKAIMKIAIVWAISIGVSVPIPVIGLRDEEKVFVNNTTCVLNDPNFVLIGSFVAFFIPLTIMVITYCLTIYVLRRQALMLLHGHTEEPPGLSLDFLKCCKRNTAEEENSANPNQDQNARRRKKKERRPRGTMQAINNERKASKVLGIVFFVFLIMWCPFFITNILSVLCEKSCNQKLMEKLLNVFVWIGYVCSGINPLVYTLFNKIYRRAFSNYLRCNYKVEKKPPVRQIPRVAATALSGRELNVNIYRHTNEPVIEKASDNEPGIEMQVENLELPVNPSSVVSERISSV

[4] = target: Gamma-aminobutyric acid receptor subunit alpha-1 (Rattus norvegicus, UniProt P62813); format: functional
[5] = target: Sodium-dependent noradrenaline transporter (Homo sapiens, UniProt P23975)
[6] = target: T3, Alpha-1A adrenergic receptor (Homo sapiens, UniProt P35348); format: functional, cell-based
T3 sequence (P35348 whole entry): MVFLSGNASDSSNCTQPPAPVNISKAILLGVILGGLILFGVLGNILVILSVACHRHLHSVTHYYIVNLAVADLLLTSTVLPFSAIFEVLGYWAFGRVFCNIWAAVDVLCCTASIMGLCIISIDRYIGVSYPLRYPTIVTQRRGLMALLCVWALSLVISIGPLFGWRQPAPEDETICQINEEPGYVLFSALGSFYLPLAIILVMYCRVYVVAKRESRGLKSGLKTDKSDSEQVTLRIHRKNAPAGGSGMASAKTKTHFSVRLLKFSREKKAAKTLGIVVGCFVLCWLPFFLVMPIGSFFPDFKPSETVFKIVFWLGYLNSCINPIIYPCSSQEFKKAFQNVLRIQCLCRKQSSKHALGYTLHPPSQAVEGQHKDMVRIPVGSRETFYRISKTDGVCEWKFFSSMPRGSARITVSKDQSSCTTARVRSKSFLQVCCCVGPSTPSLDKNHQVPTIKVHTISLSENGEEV

Thromboxane A2 receptor = target: T4, Thromboxane A2 receptor (Homo sapiens, UniProt P21731)
T4 sequence (P21731 whole entry): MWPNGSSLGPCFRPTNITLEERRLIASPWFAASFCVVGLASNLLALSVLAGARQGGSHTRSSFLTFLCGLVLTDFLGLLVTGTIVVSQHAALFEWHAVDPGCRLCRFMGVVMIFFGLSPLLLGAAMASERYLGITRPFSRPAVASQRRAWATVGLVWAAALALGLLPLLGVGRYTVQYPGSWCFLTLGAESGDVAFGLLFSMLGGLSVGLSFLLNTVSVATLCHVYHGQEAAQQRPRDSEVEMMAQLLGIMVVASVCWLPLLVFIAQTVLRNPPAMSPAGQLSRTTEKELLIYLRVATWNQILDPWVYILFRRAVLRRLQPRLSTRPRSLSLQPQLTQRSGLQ

D(1A) dopamine receptor = D(1A) dopamine receptor (Homo sapiens, UniProt P21728); format: functional, cell-based
[7] = target: T5, Alpha-2A adrenergic receptor (Homo sapiens, UniProt P08913); format: functional, cell-based
T5 sequence (P08913 whole entry): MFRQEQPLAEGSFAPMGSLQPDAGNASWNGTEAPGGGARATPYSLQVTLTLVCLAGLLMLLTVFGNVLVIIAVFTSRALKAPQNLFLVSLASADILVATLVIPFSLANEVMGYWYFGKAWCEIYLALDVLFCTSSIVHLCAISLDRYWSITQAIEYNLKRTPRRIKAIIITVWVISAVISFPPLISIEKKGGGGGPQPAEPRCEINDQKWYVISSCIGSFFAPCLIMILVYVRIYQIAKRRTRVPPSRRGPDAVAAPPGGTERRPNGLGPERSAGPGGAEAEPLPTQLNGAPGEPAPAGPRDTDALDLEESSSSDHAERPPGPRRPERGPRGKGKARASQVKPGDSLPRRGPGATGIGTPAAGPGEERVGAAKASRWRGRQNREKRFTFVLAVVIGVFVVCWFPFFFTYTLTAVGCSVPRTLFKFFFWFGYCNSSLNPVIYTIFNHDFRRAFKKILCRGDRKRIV
Further: assay procedure not described here.

Chain of Gamma-aminobutyric acid receptor subunit alpha-1 (P62813 whole entry): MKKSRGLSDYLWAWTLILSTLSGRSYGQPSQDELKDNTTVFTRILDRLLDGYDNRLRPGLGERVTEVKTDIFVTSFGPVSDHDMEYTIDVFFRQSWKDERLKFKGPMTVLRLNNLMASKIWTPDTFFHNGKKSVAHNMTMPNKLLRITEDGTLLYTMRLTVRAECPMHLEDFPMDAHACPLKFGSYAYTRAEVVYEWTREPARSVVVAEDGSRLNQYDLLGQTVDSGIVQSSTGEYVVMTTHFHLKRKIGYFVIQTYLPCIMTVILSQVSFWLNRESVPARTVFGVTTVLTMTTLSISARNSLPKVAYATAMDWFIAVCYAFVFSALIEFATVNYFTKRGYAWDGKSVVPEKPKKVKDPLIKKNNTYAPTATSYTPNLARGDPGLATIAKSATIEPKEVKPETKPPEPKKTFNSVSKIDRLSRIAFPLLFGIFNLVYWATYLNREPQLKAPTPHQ
Chain of D(1A) dopamine receptor (P21728 whole entry): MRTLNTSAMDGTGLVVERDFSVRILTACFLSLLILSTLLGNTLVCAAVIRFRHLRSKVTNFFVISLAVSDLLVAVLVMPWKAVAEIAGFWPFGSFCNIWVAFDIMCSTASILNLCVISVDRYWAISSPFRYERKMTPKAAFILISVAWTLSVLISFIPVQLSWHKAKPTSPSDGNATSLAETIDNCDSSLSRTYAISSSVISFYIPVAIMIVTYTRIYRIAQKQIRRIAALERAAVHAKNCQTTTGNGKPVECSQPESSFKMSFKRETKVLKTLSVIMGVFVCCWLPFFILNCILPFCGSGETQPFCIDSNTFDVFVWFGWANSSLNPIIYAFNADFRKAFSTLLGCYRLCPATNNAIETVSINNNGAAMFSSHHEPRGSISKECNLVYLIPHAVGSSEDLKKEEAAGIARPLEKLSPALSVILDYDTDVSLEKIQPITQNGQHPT
Chain of Sodium-dependent noradrenaline transporter (P23975 whole entry): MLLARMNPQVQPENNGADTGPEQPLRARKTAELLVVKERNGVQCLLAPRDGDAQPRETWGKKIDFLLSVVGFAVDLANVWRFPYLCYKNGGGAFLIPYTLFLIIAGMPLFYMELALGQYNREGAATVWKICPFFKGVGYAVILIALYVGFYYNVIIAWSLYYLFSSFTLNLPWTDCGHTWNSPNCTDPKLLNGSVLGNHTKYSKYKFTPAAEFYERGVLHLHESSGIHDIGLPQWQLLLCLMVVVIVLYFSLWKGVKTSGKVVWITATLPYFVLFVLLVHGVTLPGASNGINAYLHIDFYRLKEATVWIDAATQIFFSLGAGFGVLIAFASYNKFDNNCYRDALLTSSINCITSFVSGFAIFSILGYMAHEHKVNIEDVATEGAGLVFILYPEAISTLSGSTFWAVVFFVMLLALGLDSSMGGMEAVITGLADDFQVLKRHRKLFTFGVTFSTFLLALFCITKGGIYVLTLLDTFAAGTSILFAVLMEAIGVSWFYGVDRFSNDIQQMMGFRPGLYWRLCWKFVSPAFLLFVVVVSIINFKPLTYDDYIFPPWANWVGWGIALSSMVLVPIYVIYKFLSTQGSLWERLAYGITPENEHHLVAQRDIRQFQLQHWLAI
Chain of Beta-1 adrenergic receptor (P08588 whole entry): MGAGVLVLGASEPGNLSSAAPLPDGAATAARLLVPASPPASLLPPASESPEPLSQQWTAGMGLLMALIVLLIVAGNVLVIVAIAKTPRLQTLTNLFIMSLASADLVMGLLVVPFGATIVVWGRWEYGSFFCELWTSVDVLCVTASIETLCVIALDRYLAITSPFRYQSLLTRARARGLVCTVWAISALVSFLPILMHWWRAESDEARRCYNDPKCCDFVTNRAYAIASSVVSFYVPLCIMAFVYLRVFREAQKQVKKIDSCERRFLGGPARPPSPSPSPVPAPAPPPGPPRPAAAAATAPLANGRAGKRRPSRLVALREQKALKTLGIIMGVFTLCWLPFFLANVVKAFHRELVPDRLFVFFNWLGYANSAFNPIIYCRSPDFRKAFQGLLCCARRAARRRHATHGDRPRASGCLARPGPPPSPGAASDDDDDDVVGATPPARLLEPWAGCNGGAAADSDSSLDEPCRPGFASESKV

| SMILES | AC50 (Progesterone receptor) [µM] | AC50 [1] [µM] | AC50 [2] [µM] | AC50 [3] [µM] | AC50 [4] [µM] | AC50 [5] [µM] | AC50 [6] [µM] | AC50 (Thromboxane A2 receptor) [µM] | AC50 (D(1A) dopamine receptor) [µM] | AC50 [7] [µM] |
| --- | --- | --- | --- | --- | --- | --- | --- | --- | --- | --- |
| O=C(O)c1ccc2nc(-c3cc(Cl)cc(Cl)c3)oc2c1 | > 30 | > 30 | > 30 | > 30 | > 30 | > 30 | > 30 | > 30 | 12 | > 30 |
| NS(=O)(=O)c1ccc(N2CCCCS2(=O)=O)cc1 | > 30 | > 30 | > 30 | > 30 | > 30 | > 30 | > 30 | > 30 | > 30 | > 30 |
| CNCCc1ccccn1 [BETAHISTINE] | > 30 | > 30 |  | > 30 | > 30 | > 30 | > 30 | > 30 | > 30 | > 30 |
| COC(=O)[C@H]1[C@H]2C[C@@H]3c4[nH]c5ccccc5c4CCN3C[C@H]2C[C@@H](OC(=O)c2cc(OC)c(OC)c(OC)c2)[C@@H]1OC [DESERPIDINE] | > 30 | > 10 | > 10 | > 30 | > 10 | > 10 |  | > 30 | > 10 | > 10 |
| CCC1(C)CC(=O)NC1=O (centres undefined) [ETHOSUXIMIDE] | > 10 | > 10 | > 10 | > 30 | > 10 | > 10 |  | > 10 | > 30 | > 10 |
| CC(=O)N1CCN(c2ccc(OCC3COC(Cn4ccnc4)(c4ccc(Cl)cc4Cl)O3)cc2)CC1 (centres undefined) [KETOCONAZOLE] | > 10 | > 10 | > 10 | > 30 | > 10 | > 30 |  | > 10 | > 10 | > 10 |
| CN1CCC(=C2c3ccccc3CC(=O)c3sccc32)CC1 [KETOTIFEN] | > 10 | > 10 |  | 2.3 | > 10 | > 10 | > 30 | > 10 | > 10 | > 10 |
| CCC1(CC)C(=O)NC(=O)N(C)C1=O [METHARBITAL] | > 10 | > 10 | > 10 | > 30 | > 10 | > 10 |  | > 10 | > 10 | > 10 |
